In PubChem BioAssay (NCI):
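Following 48 hours of exposure in 96-well plates, responses at five concentrations were used to interpolate endpoints linearly. At the GI50, growth is halved. TGI marks complete inhibition of growth.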

Columns and labels:
Test in all cases: growth of human tumour cells (NCI), 48 h; in the data active = GI50 below about 0.43 µM; inactive = the rest
OVCAR-5 ovarian = tested on: OVCAR-5 ovarian
ACHN renal = tested on: ACHN renal
SF-268 CNS = tested on: SF-268 CNS
SK-MEL-2 melanoma = tested on: SK-MEL-2 melanoma
SF-295 CNS = tested on: SF-295 CNS
SF-539 CNS = tested on: SF-539 CNS
HCT-15 colon = tested on: HCT-15 colon
NCI/ADR-RES ovarian = tested on: NCI/ADR-RES ovarian
SNB-75 CNS = tested on: SNB-75 CNS
NCI-H226 lung = tested on: NCI-H226 lung
UACC-62 melanoma = tested on: UACC-62 melanoma
SR leukemia = tested on: SR leukemia
HOP-62 NSCLC = tested on: HOP-62 NSCLC
K-562 leukemia = tested on: K-562 leukemia
CAKI-1 renal = tested on: CAKI-1 renal
SW-620 colon = tested on: SW-620 colon
MCF7 breast = tested on: MCF7 breast
EKVX NSCLC = tested on: EKVX NSCLC
NCI-H460 lung = tested on: NCI-H460 lung
786-0 renal = tested on: 786-0 renal
UO-31 renal = tested on: UO-31 renal
SK-MEL-28 melanoma = tested on: SK-MEL-28 melanoma
COLO 205 colon = tested on: COLO 205 colon
SNB-19 CNS = tested on: SNB-19 CNS
HT29 colon = tested on: HT29 colon
SK-MEL-5 melanoma = tested on: SK-MEL-5 melanoma
MALME-3M melanoma = tested on: MALME-3M melanoma
MOLT-4 leukemia = tested on: MOLT-4 leukemia
HCT-116 colon = tested on: HCT-116 colon
CCRF-CEM leukemia = tested on: CCRF-CEM leukemia
IGROV1 ovarian = tested on: IGROV1 ovarian
UACC-257 melanoma = tested on: UACC-257 melanoma
HCC-2998 colon = tested on: HCC-2998 colon
LOX IMVI melanoma = tested on: LOX IMVI melanoma
RXF 393 renal = tested on: RXF 393 renal
OVCAR-3 ovarian = tested on: OVCAR-3 ovarian
A498 renal = tested on: A498 renal
NCI-H23 lung = tested on: NCI-H23 lung
HL-60(TB) leukemia = tested on: HL-60(TB) leukemia
KM12 colon = tested on: KM12 colon
SK-OV-3 ovarian = tested on: SK-OV-3 ovarian
HOP-92 NSCLC = tested on: HOP-92 NSCLC
DU-145 prostate = tested on: DU-145 prostate
TK-10 renal = tested on: TK-10 renal
HS 578T breast = tested on: HS 578T breast
U251 CNS = tested on: U251 CNS
T-47D breast = tested on: T-47D breast
PC-3 prostate = tested on: PC-3 prostate
BT-549 breast = tested on: BT-549 breast
NCI-H522 lung = tested on: NCI-H522 lung
A549 NSCLC = tested on: A549 NSCLC
RPMI-8226 leukemia = tested on: RPMI-8226 leukemia
OVCAR-8 ovarian = tested on: OVCAR-8 ovarian
OVCAR-4 ovarian = tested on: OVCAR-4 ovarian
MDA-MB-435 = tested on: MDA-MB-435
SN12C renal = tested on: SN12C renal
MDA-MB-231 breast = tested on: MDA-MB-231 breast

C#CCOc1cccc(-c2nc(N)nc(Nc3ccccc3SSc3ccccc3Nc3nc(N)nc(-c4cccc(OCC#C)c4)n3)n2)c1
24.2 µM: TGI (IGROV1 ovarian)
8.37 µM: TGI (NCI-H460 lung)
11.1 µM: TGI (KM12 colon)
31.3 µM: TGI (SNB-75 CNS)
5.37 µM: TGI (SN12C renal)
1.93 µM: TGI (SF-295 CNS)
> 33.3 µM: TGI (SK-MEL-2 melanoma) | TGI (SF-539 CNS) | TGI (HCT-15 colon) | TGI (NCI-H226 lung) | TGI (SR leukemia) | TGI (K-562 leukemia) | TGI (SW-620 colon) | TGI (MCF7 breast) | TGI (EKVX NSCLC) | TGI (786-0 renal) | TGI (SK-MEL-28 melanoma) | TGI (COLO 205 colon) | TGI (SNB-19 CNS) | TGI (HT29 colon) | TGI (SK-MEL-5 melanoma) | TGI (MALME-3M melanoma) | TGI (MOLT-4 leukemia) | TGI (HCT-116 colon) | TGI (CCRF-CEM leukemia) | TGI (UACC-257 melanoma) | TGI (HCC-2998 colon) | TGI (RXF 393 renal) | TGI (OVCAR-3 ovarian) | TGI (A498 renal) | TGI (HL-60(TB) leukemia) | TGI (SK-OV-3 ovarian) | TGI (HOP-92 NSCLC) | TGI (DU-145 prostate) | TGI (TK-10 renal) | TGI (T-47D breast) | TGI (PC-3 prostate) | TGI (BT-549 breast) | TGI (NCI-H522 lung) | TGI (OVCAR-4 ovarian) | TGI (MDA-MB-435) | TGI (MDA-MB-231 breast)
8.56 µM: TGI (NCI/ADR-RES ovarian)
3.82 µM: TGI (U251 CNS)
5.81 µM: TGI (UO-31 renal)
28.2 µM: TGI (OVCAR-5 ovarian)
17.1 µM: TGI (RPMI-8226 leukemia)
4.49 µM: TGI (A549 NSCLC)
1.58 µM: TGI (HOP-62 NSCLC)
13.3 µM: TGI (UACC-62 melanoma)
31.7 µM: TGI (HS 578T breast)
12.1 µM: TGI (SF-268 CNS)
14.2 µM: TGI (CAKI-1 renal)
12.9 µM: TGI (OVCAR-8 ovarian)
4.35 µM: TGI (ACHN renal)
10.4 µM: TGI (NCI-H23 lung)
inactive: GI50 (OVCAR-5 ovarian) 7.32 µM | GI50 (ACHN renal) 1.19 µM | GI50 (SF-268 CNS) 3.94 µM | GI50 (SK-MEL-2 melanoma) 16.9 µM | GI50 (SF-295 CNS) 0.751 µM | GI50 (SF-539 CNS) 11.1 µM | GI50 (HCT-15 colon) 2.31 µM | GI50 (NCI/ADR-RES ovarian) 1.89 µM | GI50 (SNB-75 CNS) 8.99 µM | GI50 (NCI-H226 lung) 4.52 µM | GI50 (UACC-62 melanoma) 5.43 µM | GI50 (SR leukemia) 1.41 µM | GI50 (HOP-62 NSCLC) 0.674 µM | GI50 (K-562 leukemia) 8.03 µM | GI50 (CAKI-1 renal) 3.78 µM | GI50 (SW-620 colon) 14.3 µM | GI50 (MCF7 breast) 17.1 µM | GI50 (EKVX NSCLC) 7.19 µM | GI50 (NCI-H460 lung) 1.72 µM | GI50 (786-0 renal) 21.2 µM | GI50 (UO-31 renal) 1.51 µM | GI50 (SK-MEL-28 melanoma) > 33.3 µM | GI50 (COLO 205 colon) > 33.3 µM | GI50 (SNB-19 CNS) 7.37 µM | GI50 (HT29 colon) > 33.3 µM | GI50 (SK-MEL-5 melanoma) 9.94 µM | GI50 (MALME-3M melanoma) > 33.3 µM | GI50 (MOLT-4 leukemia) 4.45 µM | GI50 (HCT-116 colon) 2 µM | GI50 (CCRF-CEM leukemia) 2.64 µM | GI50 (IGROV1 ovarian) 1.73 µM | GI50 (UACC-257 melanoma) 29.7 µM | GI50 (HCC-2998 colon) > 33.3 µM | GI50 (LOX IMVI melanoma) 0.746 µM | GI50 (RXF 393 renal) 33.1 µM | GI50 (OVCAR-3 ovarian) 18.2 µM | GI50 (A498 renal) 6.58 µM | GI50 (NCI-H23 lung) 1.95 µM | GI50 (HL-60(TB) leukemia) 9.92 µM | GI50 (KM12 colon) 1.69 µM | GI50 (SK-OV-3 ovarian) 13.6 µM | GI50 (HOP-92 NSCLC) 7.77 µM | GI50 (DU-145 prostate) 10.6 µM | GI50 (TK-10 renal) 13.1 µM | GI50 (HS 578T breast) 6.87 µM | GI50 (U251 CNS) 1.08 µM | GI50 (T-47D breast) 3.29 µM | GI50 (PC-3 prostate) 1.61 µM | GI50 (BT-549 breast) 8.52 µM | GI50 (NCI-H522 lung) 8.13 µM | GI50 (A549 NSCLC) 1.1 µM | GI50 (RPMI-8226 leukemia) 1.55 µM | GI50 (OVCAR-8 ovarian) 2.42 µM | GI50 (OVCAR-4 ovarian) 12.9 µM | GI50 (MDA-MB-435) 14.4 µM | GI50 (SN12C renal) 0.971 µM | GI50 (MDA-MB-231 breast) 4.78 µM
1.8 µM: TGI (LOX IMVI melanoma)
